Publication PMC5438973 (Frontiers in Psychiatry, 2017)
Where two headings read alike, the source gives them in different places.

Legend:
h5-HT2A = target: T1, h5-HT2A (Homo sapiens, UniProt P28223); experiment: GTP-γ-[35S] functional assay (SPA), AV12 cells; assay type: biochemical; details: GTPgs functional assay, human recombinant cell line
T1 construct: expressed in transfected cells; host or cells: AV12 cells
Source text: (§1) 5-HT2 receptors are functionally coupled to specific G-proteins. Agonist activation of 5-HT2 G-protein coupled receptors results in the release of GDP from alpha-subunit (G alpha q or G alpha i) of the G-protein and the subsequent binding of GTP. The binding of the stable analog GTP-g-[^35S] is an indicator of receptor activation. Human cloned 5-HT2A, −2B, and −2C receptors were expressed in AV12 cells. GTP-g-[^35S] nucleotide exchange scintillation proximity assay (SPA) was used to measure binding as previously described ([14]).

h5-HT2B = target: T2, h5-HT2B (Homo sapiens, UniProt P41595); experiment: GTP-γ-[35S] functional assay (SPA), AV12 cells; assay type: biochemical; details: GTPgs functional assay, human recombinant cell line
T2 construct: expressed in transfected cells; host or cells: AV12 cells
Source text: as §1

h5-HT2C = target: T3, h5-HT2C (Homo sapiens, UniProt P28335); experiment: GTP-γ-[35S] functional assay (SPA), AV12 cells; assay type: biochemical; details: GTPgs functional assay, human recombinant cell line
T3 construct: expressed in transfected cells; host or cells: AV12 cells
Source text: as §1

Male, Wistar rats [1] = experiment: Schedule-induced polydipsia; assay type: in vivo, rat; details: for Effect on excessive drinking / amount of water consumed / Effect on number of responses emitted (lever pressing for food): acute dosing; for Effect of antagonist on the decrease in excessive water consumption produced by CPD 1: CPD 1 5.6 mg/kg
Source text: Rats were used in these experiments as they have been utilized for such studies in the past with great success in generating significant polydipsia ([16]). Male, Wistar rats were singly housed, and maintained at approximately 85% of their free-feeding weights with free access to water. Twelve adult male, Wistar rats (Harlan Industries, Indianapolis, IN, USA) were used. They were allowed to acclimate to our vivarium for at least 3 days prior to testing. They were 2 months old at the start of the experiments that lasted approximately 6–8 months and were without explicit experimental experience prior to this study. The rats were singly housed, and maintained at approximately 86–91% of their free-feeding weights with post session supplemental feeding of Lab Diet #5001 for rodents (PMI Nutrition International Inc., St. Louis, MO, USA). Body weights were corrected for the normal growth curve of Wistar rats such that actual body weight of each rat increased over the experimental time frame. Water was available continuously in the individual home cages. Rats were inspected daily 7 days/week by experimenters and veterinary staff.
The experiments were conducted using operant behavior test chambers ENV-007 (Med Associates Inc., Georgia, VT, USA), 30.5 cm × 24.1 cm × 29.2 cm. The test chambers were contained within light and sound attenuating shells. A food trough was mounted 2 cm off the grid floor on the centerline. Two response levers were centered 8 cm off the centerline and 7 cm off the grid floor. Three lights were located above each response lever at 15 cm off the grid floor. All events were controlled and lever-press data were recorded by a Compaq computer running MED-PC Version IV (Med Associates Inc., Georgia, VT, USA). The water bottle located within each chamber was weighed before and after experimental sessions.
Experimental sessions lasted 90 min. Test compounds or drug vehicle were administered on Tuesdays and Fridays, given the stability of performance (within 15% variation of the individual animal). Non-injection, control performances were on Thursdays. […] Dose-effect curves and drug interaction data were created by repeated testing in groups of five to eight rats. Test compounds were administered as described in figure legends. The effects of the compound are expressed as a percent of control for each individual animal. Results were analyzed by ANOVA followed by Dunnett’s multiple comparison (p < 0.05).
Thus, in keeping with the guidelines of animal care and use followed here, we utilized the minimum number of animals required for signal detection.

Male, NIH Swiss mice [2] = experiment: Rotarod performance; assay type: in vivo, mouse
Source text: Mice were not pretrained on this task.

Male, NIH Swiss mice [3] = details: mouse, in vivo, 60 min
Male, NIH Swiss mice [4] = details: 12/dose group
Male, NIH Swiss mice [5] = experiment: Nestlet-shredding; details: 8/dose group
Male, Wistar rats [6] = experiment: Isoproterenol-induced drinking; assay type: in vivo, rat; details: (±)-isoproterenol 30 μg/kg, s.c.
Protocol: Male, Wistar rats (different from those rats used in the schedule-induced polydipsia studies) were used. They were 331 ± 11 g at the initiation of this study. Compound 1 (5.6 mg/kg, s.c.) was evaluated for its ability to reduce drinking. (±)-isoproterenol (30 μg/kg, s.c.) was given to induce drinking (n = 5–20 rat/group). Ten minutes after vehicle or (±)-isoproterenol injection, rats were given either vehicle or Compound 1 and a 60 min session began in which the rats in individual housing cages were given access to water 20 min after the second injection. The weight of the water bottle before and after the 60 min period was measured to the nearest 0.1 g. After the experiment, the animals were returned to their living cages with continuous access to food and water.

Male, NIH Swiss mice [7] = experiment: Locomotor activity; details: 12/dose group
[8] = fluoxetine 30 mg/kg with SB-242084 3 mg/kg

T2 sequence (P41595 whole entry): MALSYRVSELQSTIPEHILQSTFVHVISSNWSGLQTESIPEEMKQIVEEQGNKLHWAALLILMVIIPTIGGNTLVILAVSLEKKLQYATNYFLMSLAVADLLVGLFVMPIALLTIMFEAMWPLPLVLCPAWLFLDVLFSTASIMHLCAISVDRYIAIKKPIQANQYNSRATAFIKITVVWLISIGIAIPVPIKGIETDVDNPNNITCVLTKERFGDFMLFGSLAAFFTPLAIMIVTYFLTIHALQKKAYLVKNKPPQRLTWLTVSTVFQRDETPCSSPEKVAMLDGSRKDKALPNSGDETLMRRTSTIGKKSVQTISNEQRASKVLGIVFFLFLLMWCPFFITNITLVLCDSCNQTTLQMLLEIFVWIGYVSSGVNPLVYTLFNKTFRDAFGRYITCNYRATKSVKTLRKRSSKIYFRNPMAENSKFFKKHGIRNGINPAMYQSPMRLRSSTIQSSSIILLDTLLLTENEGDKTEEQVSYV
T3 sequence (P28335 33-458): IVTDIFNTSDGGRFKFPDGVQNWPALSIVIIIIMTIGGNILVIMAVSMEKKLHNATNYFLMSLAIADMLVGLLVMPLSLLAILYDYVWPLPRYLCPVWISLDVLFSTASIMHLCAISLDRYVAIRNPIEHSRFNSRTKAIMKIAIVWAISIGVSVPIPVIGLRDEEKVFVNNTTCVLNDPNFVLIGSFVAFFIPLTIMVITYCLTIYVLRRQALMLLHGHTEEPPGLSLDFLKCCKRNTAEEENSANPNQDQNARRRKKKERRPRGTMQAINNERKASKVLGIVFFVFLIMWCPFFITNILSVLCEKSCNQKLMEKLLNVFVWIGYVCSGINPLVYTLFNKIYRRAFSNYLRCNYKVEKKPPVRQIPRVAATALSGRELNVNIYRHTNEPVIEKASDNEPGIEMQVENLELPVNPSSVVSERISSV
T1 sequence (P28223 whole entry): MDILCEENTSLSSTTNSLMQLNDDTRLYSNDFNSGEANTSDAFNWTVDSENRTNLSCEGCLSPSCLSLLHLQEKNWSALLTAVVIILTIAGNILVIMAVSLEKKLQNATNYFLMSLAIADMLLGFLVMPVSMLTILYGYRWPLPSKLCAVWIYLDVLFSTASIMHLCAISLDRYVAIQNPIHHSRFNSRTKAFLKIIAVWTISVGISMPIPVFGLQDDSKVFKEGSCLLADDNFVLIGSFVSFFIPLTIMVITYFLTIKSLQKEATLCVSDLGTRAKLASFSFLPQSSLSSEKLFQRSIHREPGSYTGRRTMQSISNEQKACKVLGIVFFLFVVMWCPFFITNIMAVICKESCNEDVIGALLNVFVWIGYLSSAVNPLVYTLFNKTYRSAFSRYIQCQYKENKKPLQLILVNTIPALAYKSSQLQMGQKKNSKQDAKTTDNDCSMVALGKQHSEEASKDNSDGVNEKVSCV

Compound Clc1cccc(N2CCNCC2)c1 [mCPP, meta-chlorophenylpiperazine, reference compound] has an Emax (h5-HT2A) of 88 ± 2%, an Emax (h5-HT2B) of 84 ± 2% and an Emax (h5-HT2C) of 99 ± 2%. For the same compound, the “Effect on excessive drinking / amount of water consumed” value (“Effect on excessive drinking / amount” for short) (Male, Wistar rats [1]; given alone) was “significantly decreased” and the “Effect on number of responses emitted (lever pressing for food)” value (“Effect on number of responses emitted” below) (Male, Wistar rats [1]; given alone) was “significantly decreased”.
In the case of COc1cccc([C@H](O)C2CCN(CCc3ccc(F)cc3)CC2)c1OC [MDL100907, (R)-(2,3-dimethoxyphenyl)-[1-[2-(4-fluorophenyl)ethyl]-4-piperidyl]methanol], the “Effect of antagonist on the decrease in excessive water consumption produced by CPD 1” value (Male, Wistar rats [1]) is reported as “did not significantly alter”.
For CN(C)CCCN1c2ccccc2CCc2ccc(Cl)cc21 [Clomipramine, clomipramine], the “Effect on excessive drinking / amount” value (Male, Wistar rats [1]; given alone) was “decreased” and the “Effect on number of responses emitted” value (Male, Wistar rats [1]; given alone) was “decreased”.
For CNCCC(Oc1ccc(C(F)(F)F)cc1)c1ccccc1 (stereo not shown) [Fluoxetine, fluoxetine], the “Rotarod, minimal effective dose” value (Male, NIH Swiss mice [2]; male, NIH Swiss, mouse, in vivo, 2 min) was >30 milligrams per kilogram, the “Locomotor activity, minimal effective dose” value (shortened to “Locomotor activity”) (Male, NIH Swiss mice [3]) was >10 milligrams per kilogram and the “Marble-burying, minimal effective dose” value (Male, NIH Swiss mice [4]) was 10 milligrams per kilogram. For the same compound, the “Nestlet-shredding, minimal effective dose” value (Male, NIH Swiss mice [5]) was 10 milligrams per kilogram, the “Responses (Rsp) in percent of controls” value (Male, Wistar rats [1]; 10 mg/kg given alone) was 102.3% of controls and the “Water consumed (H2O) in percent of controls” value (Male, Wistar rats [1]; 10 mg/kg given alone) was 66.7% of controls. The “Responses (Rsp) in percent of controls” value (Male, Wistar rats [1]; 30 mg/kg, i.p., given alone) was 6% of controls, the “Water consumed (H2O) in percent of controls” value (Male, Wistar rats [1]; 30 mg/kg, i.p., given alone) was 8% of controls and the “Dose at which statistically significant reduction of excessive drinking was detected” value (Male, Wistar rats [1]; Dunnett p < 0.05) was 20 mg/kg. For the same compound, the “Dose at which statistically significant reduction of food-maintained responding was detected” value (Male, Wistar rats [1]; Dunnett p < 0.05) was 20 mg/kg, the “Water consumed (H2O) in percent of controls” value (Male, Wistar rats [1]; fluoxetine 10 mg/kg with SB-242084 3 mg/kg) was 99.2% of controls and the “Responses (Rsp) in percent of controls” value (Male, Wistar rats [1]; [8]) was 92.7% of controls. For the same compound, the “Water consumed (H2O) in percent of controls” value (Male, Wistar rats [1]; [8]) was 101.4% of controls.
With C[C@H](N)Cc1ccccc1 [D-amphetamine] the “Effect on excessive drinking / amount” value (Male, Wistar rats [1]; given alone) was “decreased” and the “Effect on number of responses emitted” value (Male, Wistar rats [1]; given alone) was “increased”.
In the case of CCCC(C)C1(CC)C(=O)NC(=O)NC1=O (stereo not shown) [Pentobarbital, pentobarbital], the “Rotarod, minimal effective dose” value (Male, NIH Swiss mice [2]; mice, 12/dose group) is reported as 5.6 milligrams per kilogram, the “Marble-burying, minimal effective dose” value (Male, NIH Swiss mice [4]) is reported as >17 milligrams per kilogram and the “Nestlet-shredding, minimal effective dose” value (Male, NIH Swiss mice [5]) is reported as 10 milligrams per kilogram.
In the case of CC(C)NCC(O)c1ccc(O)c(O)c1 (stereo not shown) [Isoproterenol, isoproterenol, reference compound], the “Increase of water consumption relative to vehicle-treated rats” value (Male, Wistar rats [6]) is reported as 432%.
Cc1cc2c(cc1Cl)N(C(=O)Nc1ccc(Oc3cccnc3C)nc1)CC2 [SB242084, 6-chloro-5-methyl-N-{6-[(2-methylpyridin-3-yl)oxy]pyridin-3-yl}indoline-1-carboxamide] was tested, and the “Responses in percent of control” value (Male, Wistar rats [1]; 3 mg/kg given alone) was 191.2% of controls, the “Water consumed (H2O) in percent of control” value (Male, Wistar rats [1]; 3 mg/kg given alone) was 112.1% of controls and the “Effect of antagonist on the decrease in excessive water consumption produced by CPD 1” value (Male, Wistar rats [1]) was “prevented”. The “Effect of antagonist on the effects of D-amphetamine” value (Male, Wistar rats [1]; SB242084 3 mg/kg, D-amphetamine 3 mg/kg) was “did not alter”, the “Effect of antagonist on the decreases in water consumption and response output produced by fluoxetine” value (Male, Wistar rats [1]; SB-242084 3 mg/kg, fluoxetine 30 mg/kg) was “significantly attenuated” and the “Effect on excessive drinking / amount” value (Male, Wistar rats [1]; given alone) was “did not significantly affect”. The “Effect on number of responses emitted” value (Male, Wistar rats [1]; given alone) was “increased”.
C[C@H](N)Cn1ccc2cc(F)c(Cl)cc21 [Ro 60-0175] was tested, and the “Rotarod, minimal effective dose” value (Male, NIH Swiss mice [2]; mice, 12/dose group) was “greater than 1 milligrams per kilogram”, the “Rotarod, minimal effective dose” value (Male, NIH Swiss mice [2]; mice, 12/dose group, listed as RO 60-0175) was >10 milligrams per kilogram and the “Locomotor activity” value (Male, NIH Swiss mice [7]) was “greater than 10 milligrams per kilogram”. The “Locomotor activity” value (Male, NIH Swiss mice [7]; listed as RO 60-0175) was >1 milligrams per kilogram, the EC50 (h5-HT2A) was 0.13 ± 0.001 µM and the Emax (h5-HT2A) was 59 ± 1%. It also gave an EC50 (h5-HT2B) of 0.057 ± 0.001 µM, an Emax (h5-HT2B) of 58 ± 1% and an EC50 (h5-HT2C) of 0.0051 ± 0.001 µM. The Emax (h5-HT2C) was 104 ± 1%, the “Marble-burying, minimal effective dose” value (Male, NIH Swiss mice [4]) was 0.1 milligrams per kilogram and the “Nestlet-shredding, minimal effective dose” value (Male, NIH Swiss mice [5]) was “less than 1 milligrams per kilogram”. For the same compound, the “Nestlet-shredding, minimal effective dose” value (Male, NIH Swiss mice [5]; listed as RO 60-0175) was <1 milligrams per kilogram, the “Effect on excessive drinking / amount” value (Male, Wistar rats [1]; given alone) was “significantly decreased” and the “Effect on number of responses emitted” value (Male, Wistar rats [1]; given alone) was “significantly decreased”.
